Experimental data reported in the NIST ThermoML archive (doi:10.1021/je200420u).
± gives the expanded uncertainty stated by the source.

Assays:
[1] = Molar enthalpy of transition or fusion; conditions: DSC
[2] = molar heat capacity at constant pressure; conditions: 101.33 kPa, Crystal 4, Small sample (50 mg) DSC
[3] = DTA

CCN1C(=O)CC(=O)N(CC)C1=S [1,3-diethyl-2-thiobarbituric acid]
Conditions	Molar enthalpy of transition or fusion [kcal/mol]	Triple point temperature [K]	molar heat capacity at constant pressure [J/K/mol]
[1], Crystal	8.48 ± 0.287	–	–
[2], 265.15 K	–	–	213.5 ± 4
[2], 270.15 K	–	–	217.3 ± 4
[2], 273.15 K	–	–	219.8 ± 3.9
[2], 275.15 K	–	–	221.2 ± 4
[2], 280.15 K	–	–	224.5 ± 3.8
[2], 285.15 K	–	–	227.7 ± 3.8
[2], 290.15 K	–	–	230.4 ± 3.9
[2], 295.15 K	–	–	233.7 ± 4.1
[2], 298.15 K	–	–	236.9 ± 4
[2], 300.15 K	–	–	238.9 ± 4.6
[2], 305.15 K	–	–	240.8 ± 4.3
[2], 310.15 K	–	–	244.8 ± 4.8
[2], 315.15 K	–	–	249.8 ± 5.8
[2], 320.15 K	–	–	252.9 ± 6.1
[2], 325.15 K	–	–	256.1 ± 8.1
[2], 330.15 K	–	–	259.7 ± 8.4
[2], 335.15 K	–	–	263.1 ± 8.6
[2], 340.15 K	–	–	266.5 ± 8.8
[2], 345.15 K	–	–	269.7 ± 8.5
[2], 350.15 K	–	–	273.3 ± 9.2
[2], 355.15 K	–	–	277.8 ± 9.3
[2], 360.15 K	–	–	282.3 ± 9.8
[2], 365.15 K	–	–	287.2 ± 10
[3], Crystal	–	377.1 ± 0.5	–

Oc1cc(O)nc(S)n1 [2-mercapto-4,6-pyrimidinediol]
Conditions	Molar enthalpy of transition or fusion [kcal/mol]	Triple point temperature [K]	molar heat capacity at constant pressure [J/K/mol]
[1], Crystal 1	3.54 ± 0.43	–	–
[1], Crystal 2	0.0717 ± 0.0478	–	–
[1], Crystal 3	0.0478 ± 0.0956	–	–
[1], Crystal 4	0.167 ± 0.0478	–	–
[2], 265.15 K	–	–	124.3 ± 4.8
[2], 270.15 K	–	–	126.6 ± 5.3
[2], 273.15 K	–	–	128 ± 5.6
[2], 275.15 K	–	–	128.8 ± 5.6
[2], 280.15 K	–	–	131.1 ± 5.8
[2], 285.15 K	–	–	132.5 ± 5.2
[2], 290.15 K	–	–	134.2 ± 5.6
[2], 295.15 K	–	–	136.2 ± 5.9
[2], 298.15 K	–	–	137.2 ± 6
[2], 300.15 K	–	–	138.6 ± 5.5
[2], 305.15 K	–	–	140 ± 6.2
[2], 310.15 K	–	–	142.2 ± 6.4
[2], 315.15 K	–	–	144.7 ± 5.1
[2], 320.15 K	–	–	146.3 ± 5.4
[2], 325.15 K	–	–	147.9 ± 4.7
[2], 330.15 K	–	–	150.1 ± 4.4
[2], 335.15 K	–	–	152 ± 4.5
[2], 340.15 K	–	–	153.8 ± 4.7
[2], 345.15 K	–	–	155.2 ± 5
[2], 350.15 K	–	–	156.6 ± 4.8
[2], 355.15 K	–	–	158.4 ± 4.8
[2], 360.15 K	–	–	160.2 ± 4.6
[2], 365.15 K	–	–	162.6 ± 4.1
[2], 370.15 K	–	–	164.7 ± 4.2
[2], 375.15 K	–	–	166 ± 4.6
[2], 380.15 K	–	–	167.7 ± 5
[2], 385.15 K	–	–	169.2 ± 5.2
[2], 390.15 K	–	–	171 ± 5.3
[2], 395.15 K	–	–	172.3 ± 5
[2], 400.15 K	–	–	174.8 ± 5
[2], 405.15 K	–	–	175.9 ± 5
[2], 410.15 K	–	–	177.2 ± 5.2
[2], 415.15 K	–	–	178.5 ± 5.1
[2], 420.15 K	–	–	179.8 ± 4.6
[2], 425.15 K	–	–	181.3 ± 4.2
[2], 430.15 K	–	–	182.9 ± 4.1
[3], Crystal 1	–	516.4 ± 0.4	–
[3], Crystal 2	–	498 ± 1.3	–
[3], Crystal 3	–	475.8 ± 2.4	–
[3], Crystal 4	–	447.2 ± 1.4	–
